Data from US20080311578A1, “System for screening eukaryotic membrane proteins” (Hydra Biosciences, Inc., priority 2004, published 2008).

Tests used:
Format in all cases: cell-based
rat TrpV1 = target: T1, rat TrpV1 (Rattus norvegicus, UniProt O35433); assay: TrpV1 mediated calcium flux in CHO cells; conditions: FIG. 8
T1 construct: expressed in transfected cells; host or cells: CHO cells
From the text: (§1) The Trp channel blocker ruthenium red inhibits TrpV1 mediated calcium flux in bacterial cells or CHO cells.

[1] = target: T2, rat TrpV1 calcium channel (Rattus norvegicus, UniProt O35433); assay: aequorin calcium flux assay in bacterial cells expressing rat TrpV1
T2 construct: expressed in transfected cells; host or cells: E. coli (Rosetta-Gami B (DE3) pLysS, Novagen), dual-T7 expression plasmid, co-expressed with aequorin
T2 sequence (O35433 whole entry): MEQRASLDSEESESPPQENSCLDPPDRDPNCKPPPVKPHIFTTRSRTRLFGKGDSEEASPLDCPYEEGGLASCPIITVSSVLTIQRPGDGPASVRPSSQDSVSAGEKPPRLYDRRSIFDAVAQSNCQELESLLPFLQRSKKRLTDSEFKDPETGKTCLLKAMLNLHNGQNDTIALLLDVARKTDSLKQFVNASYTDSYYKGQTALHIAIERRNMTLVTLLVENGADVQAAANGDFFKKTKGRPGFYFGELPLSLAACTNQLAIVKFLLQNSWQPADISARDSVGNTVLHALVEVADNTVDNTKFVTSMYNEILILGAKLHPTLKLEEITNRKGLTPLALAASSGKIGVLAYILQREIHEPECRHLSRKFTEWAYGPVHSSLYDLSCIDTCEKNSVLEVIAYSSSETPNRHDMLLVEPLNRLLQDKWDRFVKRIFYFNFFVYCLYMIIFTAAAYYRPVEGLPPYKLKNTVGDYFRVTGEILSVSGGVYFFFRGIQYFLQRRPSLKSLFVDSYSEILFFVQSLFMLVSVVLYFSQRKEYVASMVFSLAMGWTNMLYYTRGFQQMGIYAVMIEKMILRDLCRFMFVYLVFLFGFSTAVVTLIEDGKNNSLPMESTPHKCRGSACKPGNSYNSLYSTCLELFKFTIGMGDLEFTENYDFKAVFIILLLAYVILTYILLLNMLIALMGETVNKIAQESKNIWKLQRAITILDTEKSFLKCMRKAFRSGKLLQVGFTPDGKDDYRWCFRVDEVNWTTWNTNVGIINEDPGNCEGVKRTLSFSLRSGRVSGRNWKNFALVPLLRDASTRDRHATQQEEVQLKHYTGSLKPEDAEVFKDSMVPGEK
Description: (§2) 1) 0.5-2 mL of an overnight bacteria (already transformed with a nucleic acid construct or composition encoding a eukaryotic Calcium ion channel and an aequorin marker) culture is innoculated into 25 mL of LB-Amp;
(§3) 2) Bacteria are grown to an OD (optical density) of 0.6;
(§4) 3) 1 mM IPTG added for 2-hour induction;
(§5) 4) Bacteria are spun down, resuspended in ½ volume of nominally divalent free ringers and loaded with coelenterazine;
(§6) 5) Bacteria are rinsed and loaded into 96 well plate ([…]);
(§7) 6) Plate is put in a plate reader, e.g., a Wallac Victor 3;
(§8) 7) Plate is shaken for 2 sec then rested for 5 seconds;
(§9) 8) 10 reads are taken 1 second apart;
(§10) 9) 5 μL of 20 mM CaCl2 is injected;
(§11) 10) 50 reads are taken 1 second apart;
(§12) Note: When a blocker is present, it is added before the plate is put in the reader.
(§13) A further indicator of the functional activity of the ion channel is whether its activity is sensitive to treatment with agonistic or inhibitory agents. FIG. 5 summarizes experiments conducted to address this issue. […] Furthermore, the calcium-flux mediating activity of the channels is inhibited following addition of the calcium channel inhibitor, lanthanum.
as §1

[2] = target: T3, human CatSper 1 calcium channel (Homo sapiens, UniProt Q8NEC5); assay: aequorin calcium flux assay in bacterial cells expressing hCatSper1; conditions: CatSper1 expressed in bacterial cells, FIG. 5
T3 construct: expressed in transfected cells; host or cells: E. coli (Rosetta-Gami B (DE3) pLysS, Novagen), modified pET dual-T7 vector, co-expressed with apo-aequorin
T3 sequence (Q8NEC5 1-780): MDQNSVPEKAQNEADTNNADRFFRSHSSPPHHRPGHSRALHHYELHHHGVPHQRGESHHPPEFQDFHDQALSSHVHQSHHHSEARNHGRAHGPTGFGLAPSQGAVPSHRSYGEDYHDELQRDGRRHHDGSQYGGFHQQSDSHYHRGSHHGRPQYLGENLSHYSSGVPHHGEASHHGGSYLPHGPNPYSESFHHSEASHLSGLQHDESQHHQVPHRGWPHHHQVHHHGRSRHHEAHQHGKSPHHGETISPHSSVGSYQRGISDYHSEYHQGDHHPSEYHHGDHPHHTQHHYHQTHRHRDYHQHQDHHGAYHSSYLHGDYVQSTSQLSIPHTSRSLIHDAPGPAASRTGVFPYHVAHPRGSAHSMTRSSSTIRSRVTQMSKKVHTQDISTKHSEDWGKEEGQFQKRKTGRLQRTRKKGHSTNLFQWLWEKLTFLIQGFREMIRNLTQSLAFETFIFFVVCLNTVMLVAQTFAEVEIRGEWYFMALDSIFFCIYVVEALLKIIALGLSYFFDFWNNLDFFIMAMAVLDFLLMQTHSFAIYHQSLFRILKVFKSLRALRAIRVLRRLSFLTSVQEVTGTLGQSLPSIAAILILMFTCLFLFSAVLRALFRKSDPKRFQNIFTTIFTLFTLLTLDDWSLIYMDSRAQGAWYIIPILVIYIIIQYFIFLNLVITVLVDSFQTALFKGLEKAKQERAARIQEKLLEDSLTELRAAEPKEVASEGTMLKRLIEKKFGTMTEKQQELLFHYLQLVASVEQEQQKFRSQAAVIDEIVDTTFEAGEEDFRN
Description: as §2, §3, §4, §5, §6, §7, §8, §9, §10, §11, §12, §13

T1 sequence (O35433 whole entry): as the sequence (O35433 whole entry) above

Row | Structure (SMILES) | inhibition of TrpV1 mediated calcium flux (rat TrpV1) | potency (IC50) in bacterial cells compared with CHO cells ([1]; bacterial cells vs CHO cells, FIG. 8) | inhibition of TrpV1 mediated calcium flux ([1]; bacterial cells, FIG. 8) | calculated Hill slope values, CHO cells vs bacterial cells ([1]; comparison between the CHO cells and the bacterial cells, FIG. 8) | inhibition of calcium-flux mediating activity of the channel [2] | inhibition of calcium-flux mediating activity of the channel ([1]; TrpV1 expressed in bacterial cells, FIG. 5)
1 | N.N.N.N.N.N.N.N.N.N.N.N.N.N.[Cl-].[Cl-].[Cl-].[Cl-].[Cl-].[Cl-].[O-2].[O-2].[Ru+3].[Ru+3].[Ru+4] [ruthenium red] | inhibits | somewhat less potent | inhibits | not significantly different | – | –
2 | [La] [lanthanum] | – | – | – | – | inhibited in a dose dependent fashion | inhibited in a dose dependent fashion
